Reference: patent US8088808B2, “Substituted N-phenyl-bipyrrolidine carboxamides and therapeutic use thereof” (Sanofi, priority 2007, dated 2012)
Counter-ions that a name gives are not always drawn.

What was measured:
MCH receptor = MCH receptor (Homo sapiens, UniProt Q99705); assay: MCH receptor [125J]-ligand binding filtration assay; details: 10 μM test compound; percent inhibition of ligand binding
Protocol: The activity of the compounds of this invention at the MCH receptor site, if any was measured by the procedures as set forth below. • Test Compounds The compounds of this invention were stored in a 96-well microtiter plates (1 μL, 10 mM, 100% DMSO). Each of the test sample was diluted with 249 μL of 100% DMSO (dilution 1:250). […] Blank: Assay buffer containing 0.4% DMSO were transferred to the dilution microtiter plates for blanks • Assay Procedure: The filter plates with […] of 0.5% PEI-solution/well were incubated for 2 hours at room temperature. PEI was removed by vacuum filtration just before pipetting (Univac Polyfiltronic/Whatman). The solution of the compound as prepared above (50 μL), or MCH ([…]) or Puffer/DMSO (positive control) were added to 96-well round bottom microtiter plate. Then 50 μl of [^125J]-ligand solution was added followed by 100 μl of membrane suspension. The plates were closed with the lids, and incubated for 60 min. at 25° C. The samples were transferred to GF/B filter plate. The reaction mixture was removed by vacuum filtration, washed 4× with 300 μL ice-cold washing buffer and the washing solution was removed by vacuum filtration. The rubber layer at the bottom of the plate was then removed and the filters were dried over night at room temperature. 25 μL of scintillation cocktail was added and the plates were sealed and, plate frames were added and incubated for 1 hour at room temperature. The radioactivity was then measured, settings ^125J standard, 30 sec./well.

[1] = target: rhesus (Macaca Mulatta) H3 receptor (Macaca mulatta, UniProt Q865E1); assay: Rhesus H3 radioligand binding assay ([3H]-Methylhistamine displacement, WGA SPA beads); design: species or system rhesus monkey (Macaca Mulatta); details: Table 2; procedure of Example 42
Protocol: (Genbank #AY231164). Stably transfected cultures were amplified in tissue culture flasks by standard tissue culture methods and induced to express rhesus H3 by exposure to 500 ng/ml tetracycline (Cellgro) for 24 hours. After induction, cells were dissociated from flasks utilizing Cell Stripper (Cellgro). Cells were centrifuged (1K×g, 5 min) and pellet frozen in an ethanol-dry ice bath to disrupt cell membranes. Frozen cell pellet was re-suspended in 5 mM HEPES (pH 7.4, Invitrogen) at 10 ml/1000 cm2 of harvested cells. The cell suspension was drawn through an 18 gauge needle (2-3×) followed by a 23 gauge needle (2-3×) to further disrupt cell membranes. The cell suspension was centrifuged (40K×g, 30 min). Cell membrane pellet was re-suspended in 5 mM HEPES (pH 7.4, Invitrogen) at a final protein concentration of 10 mg/ml. Rhesus H3 membranes were stored under liquid nitrogen prior to use in [3H]-Methylhistamine and GTPγS radioligand binding assays.
Rhesus H3 radioligand binding assay was performed using rhesus H3 receptor membranes (prepared as described above), [3H]-Methylhistamine (Perkin Elmer) and WGA SPA beads (wheat germ agglutinin scintillation proximity assay) beads (Amersham). The assay was performed in 96-well Opti-Plates (Packard). Each reaction contained 50 μl rhesus H3 membranes (20-30 μg total protein), 50 μl WGA SPA beads (0.1 μg) and 50 μl of 83 Ci/mmol [^3H]-Methylhistamine (final concentration 2 nM) and 50 μl of tested compound. The compounds of this invention and/or vehicle were diluted with binding buffer from 10 mM DMSO stocks. Assay plates were sealed with TopSeal (Perkin Elmer) and mixed on shaker (25° C., 1 hour). Assay plates were read on TopCount scintillation counter (Packard). Results were analyzed by Hill transformation and Ki values were determined by Cheng-Prusoff equation.

Sequence of rhesus (Macaca Mulatta) H3 receptor (Q865E1 1-445): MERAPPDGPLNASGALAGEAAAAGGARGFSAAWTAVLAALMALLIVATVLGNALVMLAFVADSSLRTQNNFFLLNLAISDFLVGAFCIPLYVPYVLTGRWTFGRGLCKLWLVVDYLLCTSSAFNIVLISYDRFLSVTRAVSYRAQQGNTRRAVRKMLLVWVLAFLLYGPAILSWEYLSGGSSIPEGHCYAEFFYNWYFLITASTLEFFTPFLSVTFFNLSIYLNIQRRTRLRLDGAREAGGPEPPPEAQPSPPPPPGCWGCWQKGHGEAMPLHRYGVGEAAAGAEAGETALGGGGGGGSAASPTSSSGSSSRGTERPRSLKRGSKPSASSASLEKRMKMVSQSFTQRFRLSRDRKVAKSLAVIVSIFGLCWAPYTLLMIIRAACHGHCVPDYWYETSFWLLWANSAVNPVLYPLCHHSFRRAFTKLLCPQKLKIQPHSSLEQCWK
Sequence of MCH receptor (Q99705 whole entry): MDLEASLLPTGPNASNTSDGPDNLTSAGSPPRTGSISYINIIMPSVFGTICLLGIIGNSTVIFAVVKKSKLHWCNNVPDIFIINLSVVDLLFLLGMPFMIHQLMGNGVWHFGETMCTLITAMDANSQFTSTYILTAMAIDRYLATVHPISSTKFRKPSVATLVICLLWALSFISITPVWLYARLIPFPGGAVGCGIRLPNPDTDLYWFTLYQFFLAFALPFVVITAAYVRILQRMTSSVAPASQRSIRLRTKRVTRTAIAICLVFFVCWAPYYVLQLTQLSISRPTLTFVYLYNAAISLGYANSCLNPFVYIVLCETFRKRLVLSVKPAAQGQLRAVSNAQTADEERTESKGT

Row | inhibition at 10 µM (MCH receptor) | Ki [1] | Structure (SMILES)
1 | 5.6% | 17.3 nM | Cc1cc(C(=O)Nc2ccc(N3CC[C@H](N4CCC[C@@H]4C)C3)c(C)c2)n[nH]1 (stereo in doubt) [Example 22, 5-Methyl-1H-pyrazole-3-carboxylic acid [3-methyl-4-(2-methyl-[1,3′]bipyrrolidinyl-1′-yl)-phenyl]-amide trifluoroacetate]
2 | 28.3% | 4.7 nM | Cc1cc(C(=O)Nc2ccc(N3CC[C@H](N4CCC[C@@H]4C)C3)cc2C)n[nH]1 [Example 14, 5-Methyl-1H-pyrazole-3-carboxylic acid [2-methyl-4-(2(2S)-methyl-[1,3′(3′S)]bipyrrolidinyl-1′-yl)-phenyl]-amide]
3 | 10.3% | 10.8 nM | Cc1cc(N2CC[C@H](N3CCC[C@@H]3C)C2)ccc1NC(=O)c1cc(C)n(C)n1 [Example 15, 1,5-Dimethyl-1H-pyrazole-3-carboxylic acid [2-methyl-4-(2(2S)-methyl-[1,3′(3′S)]bipyrrolidinyl-1′-yl)-phenyl]-amide hydrochloride]
4 | -2% | 2.6 nM | Cc1cc(N2CCC(N3CCCC3C)C2)ccc1NC(=O)c1c(C)noc1C (centres unmarked) [Example 18, 3,5-Dimethyl-isoxazole-4-carboxylic acid [2-methyl-4-(2-methyl-[1,3′]bipyrrolidinyl-1′-yl)-phenyl]-amide trifluoroacetate]
5 | 24.3% | 30.9 nM | Cc1cc(C(=O)Nc2ccc(N3CCC(N4CCCC4C)C3)cc2C)n[nH]1 (centres unmarked) [Example 20, 5-Methyl-1H-pyrazole-3-carboxylic acid [2-methyl-4-(2-methyl-[1,3′]bipyrrolidinyl-1′-yl)-phenyl]-amide trifluoroacetate]
6 | 1.9% | 0.9 nM | Cc1cc(N2CC[C@H](N3CCC[C@@H]3C)C2)ccc1NC(=O)CC1CCCC1 [Example 21, 2-Cyclopentyl-N-[2-methyl-4-(2(S)-methyl-[1,3′(S)]bipyrrolidinyl-1′-yl)-phenyl]-acetamide trifluoroacetate]
7 | 11.2% | 130 nM | Cc1cc(NC(=O)C2C[C@@H]3CC[C@H]2C3)ccc1N1CCC(N2CCCC2C)C1 (stereo partly drawn) [Example 23, (1S,4R)-Bicyclo[2.2.1]heptane-2-carboxylic acid [3-methyl-4-(2-methyl-[1,3′]bipyrrolidinyl-1′-yl)-phenyl]-amide trifluoroacetate]

Continued, compound first:

Row | Structure (SMILES) | inhibition at 10 µM (MCH receptor) | Ki [1]
8 | Cc1cc(N2CC[C@H](N3CCC[C@@H]3C)C2)ccc1NC(=O)c1c(C)noc1C [Example 1, 3,5-Dimethyl-isoxazole-4-carboxylic acid [2-methyl-4-(2(2S)-methyl-[1,3′(3′S)]bipyrrolidinyl-1′-yl)-phenyl]-amide] | 0.7% | 0.4 nM
9 | Cc1cc(N2CC[C@H](N3CCC[C@@H]3C)C2)ccc1NC(=O)C1CCCCC1 [Example 2, Cyclohexanecarboxylic acid [2-methyl-4-(2S-methyl-[1,3′S]bipyrrolidinyl-1′-yl)-phenyl]-amide trifluoro-acetate] | -2.1% | 0.4 nM
10 | Cc1cc(N2CC[C@H](N3CCC[C@@H]3C)C2)ccc1NC(=O)C1CC2CCC1C2 (stereo partly drawn) [Example 3, Bicyclo[2.2.1]heptane-2-carboxylic acid [2-methyl-4-(2S-methyl-[1,3′S]bipyrrolidinyl-1′-yl)-phenyl]-amide trifluoro acetate] | -0.8% | 0.6 nM
11 | Cc1cc(N2CC[C@H](N3CCC[C@@H]3C)C2)ccc1NC(=O)C1CCOCC1 [Example 4, Tetrahydro-pyran-4-carboxylic acid [2-methyl-4-(2(2S)-methyl-[1,3′(3′S)]bipyrrolidinyl-1′-yl)-phenyl]-amide] | -1.6% | 1 nM
12 | Cc1cc(C(=O)Nc2ccc(N3CC[C@H](N4CCC[C@@H]4C)C3)cc2C)on1 [Example 5, 3-Methyl-isoxazole-5-carboxylic acid [2-methyl-4-(2S-methyl-[1,3′ S]bipyrrolidinyl-1′-yl)-phenyl]-amide trifluoro-acetate] | 3.1% | 1.1 nM
13 | Cc1cc(NC(=O)c2c(C)noc2C)ccc1N1CCC(N2CCCC2C)C1 (centres unmarked) [Example 7, 3,5-Dimethyl-isoxazole-4-carboxylic acid [3-methyl-4-(2-methyl-[1,3′]bipyrrolidinyl-1′-yl)-phenyl]-amide trifluoro-acetate] | 5% | 3.2 nM
14 | Cc1cc(N2CCC(N3CCCC3C)C2)ccc1NC(=O)CC1CCCC1 (centres unmarked) [Example 8, 2-Cyclopentyl-N-[2-methyl-4-(2-methyl-[1,3′]bipyrrolidinyl-1′-yl)-phenyl]-acetamide trifluoro-acetate] | 1.4% | 8.4 nM
15 | CC1CCCN1C1CCN(c2ccc(NC(=O)C3CCOCC3)cc2)C1 (centres unmarked) [Example 9, Tetrahydro-pyran-4-carboxylic acid [4-(2-methyl-[1,3′]bipyrrolidinyl-1′-yl)-phenyl]-amide trifluoro-acetate] | -2.8% | 8.7 nM
16 | Cc1cc(N2CCC(N3CCCC3C)C2)ccc1NC(=O)C1CC1 (centres unmarked) [Example 10, Cyclopropane carboxylic acid [2-methyl-4-(2-methyl-[1,3′]bipyrrolidinyl-1′-yl)-phenyl]-amide trifluoro-acetate] | 4% | 9.6 nM
17 | Cc1cc(NC(=O)C2CCOCC2)ccc1N1CCC(N2CCCC2C)C1 (centres unmarked) [Example 11, Tetrahydro-pyran-4-carboxylic acid [3-methyl-4-(2-methyl[1,3′]bipyrrolidinyl-1′-yl)-phenyl]-amide trifluoro-acetate] | 2.7% | 17 nM
18 | Cc1cc(N2CCC(N3CCCC3C)C2)ccc1NC(=O)C1C[C@@H]2CC[C@H]1C2 (stereo partly drawn) [Example 12, (1S,4R)-Bicyclo[2.2.1]heptane-2-carboxylic acid [2-methyl-4-(2-methyl-[1,3′]bipyrrolidinyl-1′-yl)-phenyl]-amide trifluoro-acetate] | -2.8% | 19.9 nM
19 | CC1CCCN1C1CCN(c2ccc(NC(=O)c3cn[nH]c3)cc2)C1 (centres unmarked) [Example 13, 1H-Pyrazole-4-carboxylic acid [4-(2-methyl-[1,3′]bipyrrolidinyl-1′-yl)-phenyl]-amide trifluoro-acetate] | 4.8% | 22.1 nM
20 | Cc1cc(N2CC[C@H](N3CCC[C@@H]3C)C2)ccc1NC(=O)C1C(C)(C)C1(C)C [Example 16, 2,2,3,3-Tetramethyl-cyclopropanecarboxylic acid [2-methyl-4-(2(S)-methyl-[1,3′(S)]bipyrrolidinyl-1′-yl)-phenyl]-amide trifluoroacetate] | 5.8% | 0.8 nM
21 | Cc1cc(N2CCC(N3CCCC3C)C2)ccc1NC(=O)C1C(C)(C)C1(C)C (centres unmarked) [Example 17, 2,2,3,3-Tetramethyl-cyclopropanecarboxylic acid [2-methyl-4-(2-methyl-[1,3′]bipyrrolidinyl-1′-yl)-phenyl]-amide trifluoroacetate] | 11.5% | 37.3 nM
22 | Cc1cc(N2CC[C@H](N3CCC[C@@H]3C)C2)ccc1NC(=O)c1ccco1 [Example 19, Furan-2-carboxylic acid [2-methyl-4-(2(S)-methyl-[1,3′(S)]bipyrrolidinyl-1′-yl)-phenyl]-amide trifluoroacetate] | 6% | 3.9 nM
